Values joined by “and” are separate entries in the source; they are usually repeats but may differ in a detail not shown here. Equal values may be shown once. Toxic doses and inconclusive results are not listed.
System: BDF1 mice, P388 leukemia ip, median survival T/C
Experiment: NCI In Vivo Anticancer Drug Screen. Data for tumor model P388 Leukemia (intraperitoneal) in B6D2F1 (BDF1) mice
Settings: endpoint: median survival time, higher = longer survival
In short: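 Antitumour effect was judged in vivo: survival in drug-treated mice, normalised to that of vehicle-dosed controls, gives the reported T/C.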

[1] = dose: 12.5 mg/kg/injection, schedule: Q01DX009 (ip), vehicle: saline
[2] = dose: 25.0 mg/kg/injection, schedule: Q01DX009 (ip), vehicle: saline

OCC1(O)CCC1
T/C (dose: 75.0 mg/kg/injection, schedule: Q01DX009 (ip), vehicle: saline): 95 % of control
T/C (dose: 100.0 mg/kg/injection, schedule: Q04DX003 (ip), vehicle: saline): 96 % of control
T/C (dose: 150.0 mg/kg/injection, schedule: Q01DX009 (ip), vehicle: saline): 104 % of control
T/C (dose: 200.0 mg/kg/injection, schedule: Q04DX003 (ip), vehicle: saline): 103 % of control
T/C (dose: 300.0 mg/kg/injection, schedule: Q01DX009 (ip), vehicle: saline): 109 % of control
T/C (dose: 400.0 mg/kg/injection, schedule: Q04DX003 (ip), vehicle: saline): 100 % of control

C=C1N(C)c2ccccc2C1(C)C
T/C (dose: 1.47 mg/kg/injection, schedule: Q01DX009 (ip), vehicle: saline with Tween-80): 104 % of control
T/C (dose: 2.95 mg/kg/injection, schedule: Q01DX009 (ip), vehicle: saline with Tween-80): 118 % of control
T/C (dose: 5.9 mg/kg/injection, schedule: Q01DX009 (ip), vehicle: saline with Tween-80): 122 % of control

O=C(Nc1ccc(NC(=O)c2ccc(C3=NCCCN3)cc2)cc1)Nc1ccc(C2=NCCCN2)cc1
T/C (dose: 2.5 mg/kg/injection, schedule: Q01DX009 (ip), vehicle: saline with Tween-80): 113 % of control
T/C (dose: 5.0 mg/kg/injection, schedule: Q01DX009 (ip), vehicle: saline with Tween-80): 168 % of control
T/C (dose: 5.0 mg/kg/injection, schedule: Q04DX003 (ip), vehicle: saline with Tween-80): 109 % of control
T/C (dose: 6.6 mg/kg/injection, schedule: Q01DX009 (ip), vehicle: saline with Tween-80): 175 % of control
T/C (dose: 10.0 mg/kg/injection, schedule: Q01DX009 (ip), vehicle: saline with Tween-80): 233 % of control and 204 % of control
T/C (dose: 10.0 mg/kg/injection, schedule: Q04DX003 (ip), vehicle: saline with Tween-80): 109 % of control
T/C (dose: 15.0 mg/kg/injection, schedule: Q01DX009 (ip), vehicle: saline with Tween-80): 233 % of control

N#CCC(NC(=O)OCc1ccccc1)C(=O)OCc1ccccc1 (stereo unspecified)
T/C (dose: 25.0 mg/kg/injection, schedule: Q01DX009 (ip), vehicle: saline with Tween-80): 100 % of control
T/C (dose: 50.0 mg/kg/injection, schedule: Q01DX009 (ip), vehicle: saline with Tween-80): 94 % of control
T/C (dose: 50.0 mg/kg/injection, schedule: Q04DX003 (ip), vehicle: saline with Tween-80): 96 % of control
T/C (dose: 100.0 mg/kg/injection, schedule: Q01DX009 (ip), vehicle: saline with Tween-80): 88 % of control
T/C (dose: 100.0 mg/kg/injection, schedule: Q04DX003 (ip), vehicle: saline with Tween-80): 105 % of control
T/C (dose: 200.0 mg/kg/injection, schedule: Q01DX009 (ip), vehicle: saline with Tween-80): 96 % of control
T/C (dose: 200.0 mg/kg/injection, schedule: Q04DX003 (ip), vehicle: saline with Tween-80): 94 % of control
T/C (dose: 400.0 mg/kg/injection, schedule: Q01DX009 (ip), vehicle: saline with Tween-80): 96 % of control
T/C (dose: 400.0 mg/kg/injection, schedule: Q04DX003 (ip), vehicle: saline with Tween-80): 105 % of control

Nc1n[nH]c(N)n1
T/C (dose: 100.0 mg/kg/injection, schedule: Q01DX009 (ip), vehicle: saline): 113 % of control
T/C (dose: 200.0 mg/kg/injection, schedule: Q01DX009 (ip), vehicle: saline): 113 % of control

COc1ccc(C(=O)CC(=O)CC(=O)c2ccccc2)cc1
T/C (dose: 200.0 mg/kg/injection, schedule: Q01DX009 (ip), vehicle: Klucel (hydroxypropylcellulose) (HPC)): 86 % of control
T/C (dose: 400.0 mg/kg/injection, schedule: Q01DX009 (ip), vehicle: Klucel (hydroxypropylcellulose) (HPC)): 90 % of control

CCCCCCCOC(C[N+](=O)[O-])C(Cl)(Cl)Cl (stereo unspecified)
T/C [1]: 120 % of control
T/C [2]: 120 % of control
T/C (dose: 37.5 mg/kg/injection, schedule: Q04DX003 (ip), vehicle: saline): 100 % of control
T/C (dose: 50.0 mg/kg/injection, schedule: Q01DX009 (ip), vehicle: saline): 120 % of control
T/C (dose: 75.0 mg/kg/injection, schedule: Q04DX003 (ip), vehicle: saline): 95 % of control
T/C (dose: 150.0 mg/kg/injection, schedule: Q04DX003 (ip), vehicle: saline): 95 % of control
T/C (dose: 340.0 mg/kg/injection, schedule: Q04DX003 (ip), vehicle: saline): 90 % of control

C/C(=N\NC(=O)CC(=O)N/N=C(\C)c1ccccc1)c1ccccc1
T/C (dose: 75.0 mg/kg/injection, schedule: Q01DX009 (ip), vehicle: saline with Tween-80): 91 % of control
T/C (dose: 150.0 mg/kg/injection, schedule: Q01DX009 (ip), vehicle: saline with Tween-80): 99 % of control
T/C (dose: 300.0 mg/kg/injection, schedule: Q01DX009 (ip), vehicle: saline with Tween-80): 90 % of control

C[N+]1=C2CCCCC2=C(N)CC1
T/C (dose: 6.25 mg/kg/injection, schedule: Q01DX009 (ip), vehicle: saline): 110 % of control
T/C (dose: 6.25 mg/kg/injection, schedule: Q04DX003 (ip), vehicle: saline sonified): 100 % of control
T/C [1]: 100 % of control
T/C (dose: 12.5 mg/kg/injection, schedule: Q04DX003 (ip), vehicle: saline sonified): 100 % of control
T/C [2]: 110 % of control
T/C (dose: 25.0 mg/kg/injection, schedule: Q04DX003 (ip), vehicle: saline sonified): 100 % of control

C[C@]12CC[C@@H]3c4ccc(O)cc4CC[C@H]3[C@@H]1C[C@@H](O)[C@@H]2O
T/C (dose: 12.5 mg/kg/injection, schedule: Q01DX009 (ip), vehicle: Klucel (hydroxypropylcellulose) (HPC)): 90 % of control
T/C (dose: 25.0 mg/kg/injection, schedule: Q01DX009 (ip), vehicle: Klucel (hydroxypropylcellulose) (HPC)): 100 % of control
T/C (dose: 50.0 mg/kg/injection, schedule: Q01DX009 (ip), vehicle: Klucel (hydroxypropylcellulose) (HPC)): 109 % of control
T/C (dose: 100.0 mg/kg/injection, schedule: Q04DX003 (ip), vehicle: Klucel (hydroxypropylcellulose) (HPC)): 104 % of control
T/C (dose: 200.0 mg/kg/injection, schedule: Q04DX003 (ip), vehicle: Klucel (hydroxypropylcellulose) (HPC)): 104 % of control
T/C (dose: 400.0 mg/kg/injection, schedule: Q04DX003 (ip), vehicle: Klucel (hydroxypropylcellulose) (HPC)): 100 % of control
